Experimental data taken from the NIST ThermoML archive (doi:10.1021/je900405j).
± gives the expanded uncertainty stated by the source.

Details: for viscosity: 101.33 kPa, Cone and plate viscometry; for viscosity / surface tension liquid-gas: Liquid; for surface tension liquid-gas: 293 K; for Normal melting temperature: Crystal; for Normal melting temperature / Glass transition temperature: DTA

| viscosity (290 K) [mPa·s] | surface tension liquid-gas [mN/m] | viscosity (295 K) [mPa·s] | viscosity (300 K) [mPa·s] | viscosity (305 K) [mPa·s] | viscosity (310 K) [mPa·s] | viscosity (315 K) [mPa·s] | viscosity (320 K) [mPa·s] | viscosity (325 K) [mPa·s] | viscosity (330 K) [mPa·s] | viscosity (335 K) [mPa·s] | viscosity (340 K) [mPa·s] | viscosity (345 K) [mPa·s] | viscosity (350 K) [mPa·s] | viscosity (355 K) [mPa·s] | viscosity (360 K) [mPa·s] | viscosity (365 K) [mPa·s] | Normal melting temperature [°C] | Glass transition temperature [°C] | Structure (SMILES) |
| --- | --- | --- | --- | --- | --- | --- | --- | --- | --- | --- | --- | --- | --- | --- | --- | --- | --- | --- | --- |
| 46 ± 10 | 53 ± 7 | 41 ± 10 | 32 ± 10 | 31 ± 10 | 27 ± 10 | 24 ± 10 | 22 ± 10 | 21 ± 10 | 19 | 18 | 18 | 16 | 15 | 15 | 15 | 13 |  |  | CCn1cc[n+](C)c1.F[B-](F)(F)F [1-ethyl-3-methylimidazolium tetrafluoroborate] |
| 24 | 64 ± 9 | 21 | 19 | 18 | 17 | 16 | 15 | 15 | 14 | 14 | 13 | 13 | 12 | 12 | 12 | 12 | -18 ± 2 | -96 ± 3 | CCn1cc[n+](C)c1.N#CN=C=[N-] [1-ethyl-3-methylimidazolium dicyanamide] |
| 355 ± 17 | 38 ± 5 | 272 ± 14 | 209 ± 12 | 163 ± 11 | 129 ± 10 | 105 ± 10 | 87 ± 10 | 72 ± 10 | 62 ± 10 | 53 ± 10 | 47 ± 10 | 41 ± 10 | 37 ± 10 | 34 ± 10 | 30 ± 10 | 28 ± 10 | 4 ± 2 | -116 ± 3 | CCCC[N+]1(C)CCCC1.FC(F)(F)C(F)(F)[P-](F)(F)(F)(C(F)(F)C(F)(F)F)C(F)(F)C(F)(F)F |

| Structure (SMILES) | viscosity (290 K) [mPa·s] | surface tension liquid-gas [mN/m] | viscosity (295 K) [mPa·s] | viscosity (300 K) [mPa·s] | viscosity (305 K) [mPa·s] | viscosity (310 K) [mPa·s] | viscosity (315 K) [mPa·s] | viscosity (320 K) [mPa·s] | viscosity (325 K) [mPa·s] | viscosity (330 K) [mPa·s] | viscosity (335 K) [mPa·s] | viscosity (340 K) [mPa·s] | viscosity (345 K) [mPa·s] | viscosity (350 K) [mPa·s] | viscosity (355 K) [mPa·s] | viscosity (360 K) [mPa·s] | viscosity (365 K) [mPa·s] | Normal melting temperature [°C] | Glass transition temperature [°C] |
| --- | --- | --- | --- | --- | --- | --- | --- | --- | --- | --- | --- | --- | --- | --- | --- | --- | --- | --- | --- |
| CCC[n+]1ccn(C)c1C.O=S(=O)([N-]S(=O)(=O)C(F)(F)F)C(F)(F)F | 131 ± 10 | 41 ± 6 | 106 ± 10 | 85 ± 10 | 69 ± 10 | 58 ± 10 | 49 ± 10 | 42 ± 10 | 37 ± 10 | 33 ± 10 | 29 ± 10 | 27 ± 10 | 24 ± 10 | 23 ± 10 | 21 ± 10 | 20 | 19 | 8 ± 2 | -109 ± 20 |
